Laboratory results: patent US20230407243A1, “GENETIC PLATFORM TO INVESTIGATE THE FUNCTIONS OF BACTERIAL DRUG EFFLUX PUMPS” (priority 2022, published 2023)
Like-named read-outs stand apart in the source and are kept apart here.

Key:
Format in all cases: cell-based, Escherichia coli
[1] = test system: E. coli EKO-35; assay: microbe, parasite or virus in culture; conditions: for MIC: Escherichia coli, EKO35, technical duplicate
In short: (§1)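 Overnight LB cultures (37 °C, 18 h) were resuspended in PBS pH 7.4 to OD600 ~1.0 and diluted 1/2000 into MHB II. Strains were exposed to 2-fold serial compound dilutions in duplicate for 18 h at 37 °C with shaking. MIC was read from OD600 after subtracting pre-incubation background.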

[2] = test system: E. coli ΔtolC; assay: microbe, parasite or virus in culture
In short: as §1

[3] = test system: wild-type E. coli K-12 str. BW25113; assay: microbe, parasite or virus in culture; conditions: Escherichia coli, BW25113, technical duplicate
In short: as §1

[4] = test system: EKO-35 araC::acrBD408A; assay: MIC susceptibility profiling, efflux platform
In short: as §1

[5] = test system: EKO-35 araC::acrB; assay: MIC susceptibility profiling, efflux platform; conditions: EKO-35 araC::acrB compared to EKO-35
In short: as §1

[6] = test system: EKO-35 araC::acrD; assay: MIC susceptibility profiling, efflux platform
In short: as §1

[7] = test system: EKO-35 araC::acrEF; assay: MIC susceptibility profiling, efflux platform; conditions: EKO-35 araC::acrEF compared to EKO-35
In short: as §1

[8] = test system: EKO-35 araC::emrAB; assay: MIC susceptibility profiling, efflux platform
In short: as §1

[9] = test system: EKO-35 araC::emrKY; assay: MIC susceptibility profiling, efflux platform
In short: as §1

[10] = test system: EKO-35 araC::macAB; assay: MIC susceptibility profiling, efflux platform
In short: as §1

[11] = test system: EKO-35 araC::mdtBC; assay: MIC susceptibility profiling, efflux platform
In short: as §1

[12] = test system: EKO-35 araC::mdtEF; assay: MIC susceptibility profiling, efflux platform; conditions: EKO-35 araC::mdtEF compared to EKO-35
In short: as §1

[13] = test system: EKO-35 araC::mexCD (MexCD from P. aeruginosa); assay: MIC susceptibility profiling, efflux platform
In short: as §1

[14] = test system: wild-type (WT) K-12-Pore; assay: microbe, parasite or virus in culture; conditions: Escherichia coli, technical duplicate
In short: (§2)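 Strains carry the fhuA ΔC/Δ4L pore integrated between glmS and pstS under a constitutive promoter, with pore activity checked by vancomycin susceptibility. Overnight LB cultures were adjusted in PBS pH 7.4 to OD600 ~1.0 and diluted 1/2000 into MHB II. 2-fold compound titrations were read by OD600 after 18 h at 37 °C.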

[15] = test system: ΔtolC-Pore; assay: microbe, parasite or virus in culture
In short: as §2

[16] = test system: EKO-35 araC::acrEF Pore; assay: MIC susceptibility profiling, porinated efflux platform; conditions: EKO-35 araC::acrEF Pore compared to EKO-35-Pore
In short: as §2

[17] = test system: EKO-35 araC::emrKY Pore; assay: as above
In short: as §2

[18] = test system: EKO-35 araC::macAB Pore; assay: as above
In short: as §2

[19] = test system: EKO-35 araC::mdtEF Pore; assay: as above; conditions: EKO-35 araC::mdtEF Pore compared to EKO-35-Pore
In short: as §2

Compound: CCCCCCCCCCCCOS(=O)(=O)[O-].[Na+] [SDS, sodium dodecyl sulphate]
- Fold change of MICs ([1]; EKO-35 compared to EKO-35 (reference)): 1 fold
- MIC ([1]; Table 10, without pore, read-out: Minimum inhibitory concentration (MIC), EKO-35): 31.2 µg/mL
- MIC ([1]; Table 13A, non-porinated, read-out: Minimum Inhibitory Concentration, EKO-35): 31.2 µg/mL
- MIC ([2]; Escherichia coli, 18 h, read-out: Minimum Inhibitory Concentration, ΔtolC): 15.6 µg/mL
- Minimum inhibitory concentration (MIC), ΔtolC ([2]; Table 10, without pore, technical duplicate): 15.625 µg/mL
- MIC ([3]; Table 10, without pore, read-out: Minimum inhibitory concentration (MIC), K-12): 1000 µg/mL
- MIC ([3]; Table 13A, non-porinated, read-out: Minimum Inhibitory Concentration, K-12): 1000 µg/mL
- Fold change of MICs ([4]; EKO-35 araC::acrBD408A compared to EKO-35): 2 fold
- MIC ([4]; Escherichia coli, Table 13B, non-porinated, technical duplicate, read-out: Minimum Inhibitory Concentration, EKO-35 araC::acrBD408A): 62.5 µg/mL
- Fold change of MICs [5]: 32 fold
- efflux pump-mediated resistance vs EKO-35 ([6]; AcrD): confirmed
- Fold change of MICs ([6]; EKO-35 araC::acrD compared to EKO-35): 32 fold
- Fold change of MICs [7]: 32 fold
- Fold change of MICs ([8]; EKO-35 araC::emrAB compared to EKO-35): 4 fold
- MIC ([8]; Escherichia coli, Table 13B, non-porinated, technical duplicate, read-out: Minimum Inhibitory Concentration, EKO-35 araC::emrAB): 125 µg/mL
- Fold change of MICs ([9]; EKO-35 araC::emrKY compared to EKO-35): 2 fold
- MIC ([9]; Escherichia coli, Table 13B, non-porinated, technical duplicate, read-out: Minimum Inhibitory Concentration, EKO-35 araC::emrKY): 62.5 µg/mL
- Fold change of MICs ([10]; EKO-35 araC::macAB compared to EKO-35): 1 fold
- MIC ([10]; Escherichia coli, Table 13B, non-porinated, technical duplicate, read-out: Minimum Inhibitory Concentration, EKO-35 araC::macAB): 31.2 µg/mL
- Fold change of MICs ([11]; EKO-35 araC::mdtBC compared to EKO-35): 2 fold
- MIC ([11]; Escherichia coli, Table 13B, non-porinated, technical duplicate, read-out: Minimum Inhibitory Concentration, EKO-35 araC::mdtBC): 62.5 µg/mL
- Fold change of MICs [12]: 32 fold
- Fold change of MICs ([13]; EKO-35 araC::mexCD compared to EKO-35): 32 fold
- MIC ([13]; Table 13B, non-porinated, technical duplicate, read-out: Minimum Inhibitory Concentration, EKO-35 araC::mexCD): 1000 µg/mL
- MIC ([14]; Table 10, with pore, read-out: Minimum inhibitory concentration (MIC), Pore K-12): 1000 µg/mL
- MIC ([14]; Table 14A, porinated, read-out: Minimum inhibitory concentration, K-12 (WT)-Pore): 1000 µg/mL
- MIC ([15]; Escherichia coli, 18 h, read-out: Minimum inhibitory concentration, ΔtolC-Pore): 15.6 µg/mL
- Minimum inhibitory concentration (MIC), Pore ΔtolC ([15]; Table 10, with pore, technical duplicate): 15.625 µg/mL
- Fold changes of MICs [16]: 32 fold
- Fold changes of MICs ([17]; EKO-35 araC::emrKY Pore compared to EKO-35-Pore): 1 fold
- MIC ([17]; Escherichia coli, EKO-35 araC::emrKY Pore, technical duplicate, read-out: Minimum inhibitory concentration): 31.2 µg/mL
- Fold changes of MICs ([18]; EKO-35 araC::macAB Pore compared to EKO-35-Pore): 1 fold
- MIC ([18]; Escherichia coli, EKO-35 araC::macAB Pore, technical duplicate, read-out: Minimum inhibitory concentration): 31.2 µg/mL
- Fold changes of MICs [19]: 32 fold
